# Measured values published in US8546409B2, “Methods of treatment for solid tumors” (priority 2009, dated 2013).
# Several values for one entry are separate records, joined by “and”; a condition that tells them apart may be missing. Identical values can stand only once. Entries after “also recorded” stand apart in the source; their conditions may differ.
# Columns and labels:
# [1] = system: MCF7; assay: NCI panel growth inhibition, MCF7; type: cell-based; settings: Homo sapiens, Breast Cancer
# Excerpt: (§1) Compound I has also been tested in a battery of tumor cell assays known as the NCI panel.
# [2] = system: UACC-257; assay: NCI panel growth inhibition, UACC-257; type: cell-based; settings: Homo sapiens, Melanoma
# Excerpt: as §1
# [3] = system: HOP-92; assay: NCI panel growth inhibition, HOP-92; type: cell-based; settings: Homo sapiens, Non-Small Cell Lung Cancer
# Excerpt: as §1
# [4] = system: TK-10; assay: NCI panel growth inhibition, TK-10; type: cell-based; settings: Homo sapiens, Renal
# Excerpt: as §1
# [5] = system: OVCAR-3 xenografts; assay: Ovarian cancer cell xenografts in nu/nu mice (FIG. 8); type: in vivo; settings: 30 mg/kg BID, 36 days, female nu/nu mice
# Description: Female nu/nu mice bearing OVCAR-3 xenografts (human ovarian cancer cells) were maintained until tumor volume measured about 100 mm^3. At that point, treatment began with compound I at a rate of 30 mg/kg administered twice per day.
# [6] = system: 786-0; assay: NCI panel growth inhibition, 786-0; type: cell-based; settings: Homo sapiens, Renal
# Excerpt: as §1
# [7] = target: T1, p110β (Homo sapiens, UniProt P42338); assay: Chick embryo fibroblast (CEF) transformation assay, p110β; type: cell-based; settings: read-out: EC-50 for inhibition of functional activity of p110β
# T1 construct: expressed in transfected cells; host or cells: chick embryo fibroblasts (CEF), viral transduction
# Excerpt: (§2) Moreover, compound I has comparatively low activity on p110α in a cell-transformation system designed to measure functional activity of these kinases, but is a potent inhibitor of both p110β and p110δ in that assay. See Example 1. This chick embryo fibroblast (CEF) transformation system has been reported as a useful way to assess the functional activity of the PI3K signaling pathway. Denley, et al., “Oncogenic signaling of class I PI3K isoforms,” Oncogene, vol. 27(18), 2561-74 (2008). Transformation of CEF cells in the assay depends upon functional kinase activity. Kang, et al., Proc. Nat'l Acad. Sci. USA, vol. 103(5), 1289-94 (2006). The readout of this assay is based on the frequency of transformation of CEF cells exposed to viral vectors carrying a specific p110 isoform of interest.
# (§3) Chick embryo fibroblasts (CEF) are transduced with viral stocks with versions of the human genes for the individual PI3K isoforms p110α, p110β, p110δ and p110γ. These transduced CEF lines are then plated in a growth medium where oncogenically transformed cells form foci that can then be stained and counted. […] Denley A, Kang S, Karst U and Vogt PK, “Oncogenic signaling of class 1 PI3K isoforms.” Oncogene (2008) 27: 2561-2574. FIG. 3 illustrates the readout of this assay.
# [8] = in vivo; settings: rat, 60 mg/kg/day
# Description: Compound I was dosed at 60, 120, or 240 mg/kg/day administered as a single dose for up to 14 days in healthy rats. […] The peak concentration of compound I (Cmax) and area under the curve (AUC) for tolerated doses were higher than those observed with effective doses of Compound I in the xenograft model tumors in mice.
# [9] = system: OVCAR-3; assay: NCI panel growth inhibition, OVCAR-3; type: cell-based; settings: Homo sapiens, Ovarian
# Excerpt: as §1
# [10] = system: PC-3; assay: NCI panel growth inhibition, PC-3; type: cell-based; settings: Homo sapiens, Prostate
# Excerpt: as §1
# [11] = system: NCI-H23; assay: NCI panel growth inhibition, NCI-H23; type: cell-based; settings: Homo sapiens, Non-Small Cell Lung Cancer
# Excerpt: as §1
# [12] = system: HCC-2998; assay: NCI panel growth inhibition, HCC-2998; type: cell-based; settings: Homo sapiens, Colon Cancer
# Excerpt: as §1
# [13] = system: SF-539; assay: NCI panel growth inhibition, SF-539; type: cell-based; settings: Homo sapiens, CNS Cancer
# Excerpt: as §1
# [14] = system: NCI-H460; assay: NCI panel growth inhibition, NCI-H460; type: cell-based; settings: Homo sapiens, Non-Small Cell Lung Cancer
# Excerpt: as §1
# [15] = system: T47D; assay: Tumor cell culture growth, optical density at 459 nm (FIG. 7), T47D; type: cell-based; settings: 5-10 micromolar
# [16] = system: HCT-15; assay: NCI panel growth inhibition, HCT-15; type: cell-based; settings: Homo sapiens, Colon Cancer
# Excerpt: as §1
# [17] = system: OVCAR-5; assay: NCI panel growth inhibition, OVCAR-5; type: cell-based; settings: Homo sapiens, Ovarian
# Excerpt: as §1
# [18] = system: SF-268; assay: NCI panel growth inhibition, SF-268; type: cell-based; settings: Homo sapiens, CNS Cancer
# Excerpt: as §1
# [19] = target: p110α (Homo sapiens, UniProt P42336); assay: Chick embryo fibroblast (CEF) transformation assay, p110α; type: cell-based; settings: read-out: EC-50 for functional activity of p110α, highest concentration tested 2000 nM
# Excerpt: as §2, §3
# [20] = Half-life in vivo in rats
# Excerpt: Treatments of the invention typically involve administration of compound Ito a subject in need of treatment on a daily basis for at least one week or more than one week, often for 2-4 weeks, and sometimes for 1-3 months or more. The half-life of Compound I in vivo in mice and rats is several hours—see FIG. 6. It is thus sometimes desirable to administer compound I in multiple doses each day, in order to maintain efficacious plasma levels over a prolonged period of time. Administration may be done in two doses per day, or three doses per day, or in some embodiments, four doses per day or more, particularly when Compound I is administered orally. Alternatively, Compound I can be administered intravenously at a rate that maintains an efficacious plasma level for a prolonged period of time. Suitably, it would be administered at a rate to achieve a plasma level of at least about 1 micromolar, or at least 3 micromolar, or at least 5 micromolar.
# [21] = system: KM12; assay: NCI panel growth inhibition, KM12; type: cell-based; settings: Homo sapiens, Colon Cancer
# Excerpt: as §1
# [22] = system: DU-145; assay: NCI panel growth inhibition, DU-145; type: cell-based; settings: Homo sapiens, Prostate
# Excerpt: as §1
# [23] = system: CAKI-1; assay: NCI panel growth inhibition, CAKI-1; type: cell-based; settings: Homo sapiens, Renal
# Excerpt: as §1
# [24] = in vivo; design: species or system mice; settings: female, nu/nu, mouse
# Description: At this range, which was the effective dosage used in the tests shown in FIGS. 8 and 9, plasma concentration of compound I reaches about 5000-7000 ng/mL.
# Compound I was administered in a single dose at a rate of 30 mg/kg to each test subject, and plasma levels were monitored for 12 hours thereafter. Plasma levels of Compound I peaked around 2-4 hours after administration in each case, and had essentially returned to zero 8 hours after the single dose at this rate, as shown in FIG. 10. The peak plasma concentration for these subjects, after a single injection at the dose shown to be effective for inhibiting tumor growth of each xenograft (see the preceding examples, and FIGS. 8-9) were generally below about 7000 ng/mL.
# T1 sequence (P42338 whole entry): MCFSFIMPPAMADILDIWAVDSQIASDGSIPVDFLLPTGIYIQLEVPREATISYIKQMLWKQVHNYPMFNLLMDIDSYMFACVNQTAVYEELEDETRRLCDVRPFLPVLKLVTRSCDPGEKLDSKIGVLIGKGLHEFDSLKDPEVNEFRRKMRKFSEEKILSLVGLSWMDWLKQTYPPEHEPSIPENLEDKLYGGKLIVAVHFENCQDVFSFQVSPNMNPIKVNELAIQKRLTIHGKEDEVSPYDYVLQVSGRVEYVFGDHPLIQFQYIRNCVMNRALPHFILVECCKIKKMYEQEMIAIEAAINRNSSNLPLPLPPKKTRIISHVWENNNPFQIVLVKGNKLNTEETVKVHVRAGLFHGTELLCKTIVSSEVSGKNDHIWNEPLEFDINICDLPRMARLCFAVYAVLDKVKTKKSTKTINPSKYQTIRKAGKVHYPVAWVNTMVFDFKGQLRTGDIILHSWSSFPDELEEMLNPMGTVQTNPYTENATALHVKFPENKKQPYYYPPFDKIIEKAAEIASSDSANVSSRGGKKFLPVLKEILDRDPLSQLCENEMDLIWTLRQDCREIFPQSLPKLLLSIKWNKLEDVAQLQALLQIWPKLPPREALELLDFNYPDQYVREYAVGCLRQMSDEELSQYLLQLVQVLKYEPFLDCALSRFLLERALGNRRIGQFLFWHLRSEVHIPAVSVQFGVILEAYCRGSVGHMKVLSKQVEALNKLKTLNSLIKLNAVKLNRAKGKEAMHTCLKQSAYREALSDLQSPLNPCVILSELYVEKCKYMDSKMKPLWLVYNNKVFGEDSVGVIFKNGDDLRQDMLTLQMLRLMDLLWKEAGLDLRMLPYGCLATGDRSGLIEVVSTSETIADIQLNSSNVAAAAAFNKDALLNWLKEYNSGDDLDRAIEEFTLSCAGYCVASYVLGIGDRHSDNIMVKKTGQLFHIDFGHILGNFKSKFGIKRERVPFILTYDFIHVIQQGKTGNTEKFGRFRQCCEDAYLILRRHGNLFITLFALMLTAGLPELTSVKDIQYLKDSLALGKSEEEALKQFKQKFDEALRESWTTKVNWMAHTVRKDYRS
# Chain of p110α (P42336 whole entry, change not shown): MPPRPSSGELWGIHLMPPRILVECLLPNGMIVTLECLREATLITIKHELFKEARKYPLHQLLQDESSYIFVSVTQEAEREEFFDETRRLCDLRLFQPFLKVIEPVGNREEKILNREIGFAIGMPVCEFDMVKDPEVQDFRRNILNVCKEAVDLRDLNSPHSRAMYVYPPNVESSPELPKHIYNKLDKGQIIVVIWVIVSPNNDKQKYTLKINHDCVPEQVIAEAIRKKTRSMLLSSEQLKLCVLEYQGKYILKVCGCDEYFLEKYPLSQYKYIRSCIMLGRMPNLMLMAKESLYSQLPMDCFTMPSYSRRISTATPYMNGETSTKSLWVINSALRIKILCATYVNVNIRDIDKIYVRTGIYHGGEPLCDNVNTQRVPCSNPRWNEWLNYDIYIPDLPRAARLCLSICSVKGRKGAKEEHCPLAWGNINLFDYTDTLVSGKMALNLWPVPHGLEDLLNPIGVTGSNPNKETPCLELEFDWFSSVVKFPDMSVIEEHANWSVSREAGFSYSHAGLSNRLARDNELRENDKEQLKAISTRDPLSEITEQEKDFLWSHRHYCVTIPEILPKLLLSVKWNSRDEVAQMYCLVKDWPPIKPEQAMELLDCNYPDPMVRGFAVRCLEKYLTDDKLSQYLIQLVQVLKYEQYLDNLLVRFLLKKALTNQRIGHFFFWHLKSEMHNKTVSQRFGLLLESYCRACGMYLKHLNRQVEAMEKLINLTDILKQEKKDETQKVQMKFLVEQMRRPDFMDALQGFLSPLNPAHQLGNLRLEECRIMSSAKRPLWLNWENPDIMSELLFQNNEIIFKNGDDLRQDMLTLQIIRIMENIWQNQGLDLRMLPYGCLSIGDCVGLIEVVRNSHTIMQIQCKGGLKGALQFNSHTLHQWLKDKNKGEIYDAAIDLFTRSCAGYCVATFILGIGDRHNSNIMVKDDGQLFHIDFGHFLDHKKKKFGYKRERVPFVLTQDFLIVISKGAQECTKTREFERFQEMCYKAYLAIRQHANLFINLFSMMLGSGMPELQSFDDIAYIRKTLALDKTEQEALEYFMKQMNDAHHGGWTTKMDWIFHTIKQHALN
compound,measurement,setting,value
C[C@H](Nc1ncnc2[nH]cnc12)c1nc2ccc(F)cc2c(=O)n1-c1ccccc1 [Compound I],GI50,[1],2540 nM
same,GI50,[2],17400 nM
same,GI50,[3],300 nM
same,GI50,[4],1240 nM
same,Tumor volume of OVCAR-3 xenograft,[5],the size of the existing tumor was actually reduced; also recorded: completely inhibited growth; also recorded: Tumor volume actually decreased
same,GI50,[6],1990 nM
same,EC50,[7],150 nM and ~150 nM
same,AUC,[8],58000 ng·h/mL
same,Cmax,[8],7300 ng/mL
same,GI50,[9],316 nM
same,GI50,[10],647 nM
same,GI50,[11],100000 nM
same,GI50,[12],32400 nM
same,GI50,[13],15900 nM
same,GI50,[14],25700 nM
same,Inhibition of tumor cell culture growth,[15],strong inhibition of growth
same,GI50,[16],30300 nM
same,GI50,[17],27700 nM
same,GI50,[18],1890 nM
same,EC50,[19],> 2000 nM
same,Half-life in vivo,[20],several hours
same,GI50,[21],2000 nM
same,GI50,[22],1350 nM
same,GI50,[23],1010 nM
same,AUC,[24],"18,000 ng-h/mL"
same,Time after which plasma levels had essentially returned to zero,[24]; 30 mg/kg,8 h
same,Time of peak plasma level after administration,[24]; 30 mg/kg,2 to 4 h
same,AUC,[24]; AUC,15000 ng·h/mL
